According to EPA's ToxValDB 9.5:

Test system: Rattus norvegicus
Conditions: oral, gavage
[1] = developmental, duration: 14 days, M/F, Crl:CD(SD), generation: F1, F1: Developmental: Bone: Skeletal Malformation + F1: Developmental: Whole Body: Nursing Behavior + F1: Developmental: Whole Body: Pup Weight…
[2] = developmental, duration: 14 days, M/F, Crl:CD(SD), generation: F1, F1: Pelvis: Pelvis, Ischium Incompletely Ossified + F1: Pelvis: Pelvis, Pubis Incompletely Ossified + F1: Skull: Interparietal, Incomplete …
[3] = developmental, duration: 14 days, M/F, Crl:CD(SD), generation: F1, F1: Skull: Supraoccipital, Incomplete Ossification
[4] = developmental, duration: 14 days, M/F, Sprague-Dawley, generation: F1, F1: Developmental: Pelvic Girdle: Ischium, Incomplete Ossification + F1: Developmental: Pelvic Girdle: Pubis, Incomplete Ossification + F1: …
[5] = developmental, duration: 14 days, M/F, Sprague-Dawley, generation: F1, F1: Developmental: Pelvis: Pelvis, Ischium Incompletely Ossified + F1: Developmental: Pelvis: Pelvis, Pubis Incompletely Ossified + F1: …
[6] = developmental, duration: 14 days, M/F, Sprague-Dawley, generation: F1, F1: Pelvic Girdle: Ischium, Incomplete Ossification + F1: Pelvic Girdle: Pubis, Incomplete Ossification + F1: Rib: Rib, Thick + F1: Rib: Rib…
[7] = developmental, M/F, Sprague-Dawley, generation: F1, F1: Developmental: Whole Body: Lactation Index + F1: Developmental: Whole Body: Live Pups Born + F1: Developmental: Whole Body: No. of Pups …
[8] = reproduction developmental, duration: 14 days, F, Crl:CD(SD), generation: P0, P0: Developmental: Uterus: Implantation + P0: General Toxicity: Whole Body: Necropsy Appeared Normal + P0: Reproductive: Ovary: Corpora …
[9] = reproduction developmental, duration: 14 days, F, Crl:CD(SD), generation: P0, P0: Developmental: Uterus: Implantation + P0: Reproductive: Whole Body: Length of Gestation
[10] = reproduction developmental, duration: 14 days, F, Crl:CD(SD), generation: P0, P0: Whole Body: Clinical Observations + P0: Whole Body: Maternal Body Weight + P0: Whole Body: Maternal Body Weight Change + P0: Whole Body…
[11] = reproduction developmental, duration: 14 days, F, Crl:CD(SD), generation: P0, P0: Whole Body: Maternal Body Weight Change, Corrected
[12] = reproduction developmental, duration: 14 days, F, Sprague-Dawley, generation: P0, P0: Developmental: Uterus: Implantation + P0: Developmental: Uterus: Resorptions, Early + P0: Developmental: Uterus: Resorptions, Late + P0…
[13] = reproduction developmental, duration: 14 days, F, Sprague-Dawley, generation: P0, P0: Whole Body: Maternal Body Weight + P0: Whole Body: Maternal Body Weight Change + P0: Whole Body: Maternal Body Weight, Corrected
[14] = reproduction developmental, duration: 14 days, M/F, Crl:CD(SD), generation: F1, F1: Whole Body: Pup Weight + F1: Whole Body: Viability Index
[15] = reproduction developmental, duration: 70 days, F, Crl:CD(SD), generation: P0, P0: Uterus: Uterus (With Cervix) Weight, Absolute + P0: Whole Body: Clinical Observations + P0: Whole Body: Maternal Food Consumption, …
[16] = reproduction developmental, duration: 70 days, F, Crl:CD(SD), generation: P0, P0: Uterus: Uterus (With Cervix) Weight, Relative + P0: Whole Body: Maternal Body Weight Change + P0: Whole Body: Mortality + P0: Whole Body…
[17] = reproduction developmental, duration: 70 days, M/F, Crl:CD(SD), generation: F1, F1: Whole Body: Clinical Observations + F1: Whole Body: Lactation Index + F1: Whole Body: Pup Mortality + F1: Whole Body: Pup Weight …
[18] = reproduction developmental, duration: 70 days, M/F, Crl:CD(SD), generation: F1, F1: Whole Body: Pup Mortality + F1: Whole Body: Pup Weight Relative to Litter
[19] = reproduction developmental, duration: 70 days, M, Crl:CD(SD), generation: P0, P0: Whole Body: Clinical Observations + P0: Whole Body: Mortality
[20] = reproduction developmental, duration: 70 days, M, Crl:CD(SD), generation: P0, P0: Whole Body: Terminal Body Weight, Absolute
[21] = reproduction developmental, duration: 84 days, M, Crl:CD(SD), generation: P0, P0: Seminal Vesicle: Seminal Vesicle Weight, Absolute + P0: Seminal Vesicle: Seminal Vesicle Weight, Relative + P0: Whole Body: Clinical …
[22] = reproduction developmental, duration: 84 days, M, Crl:CD(SD), generation: P0, P0: Whole Body: Body Weight Change + P0: Whole Body: Terminal Body Weight, Absolute
[23] = reproduction developmental, duration: 131 days, F, Crl:CD(SD), generation: P0, P0: Uterus: Uterus Weight, Absolute + P0: Uterus: Uterus Weight, Relative + P0: Whole Body: Clinical Observations
[24] = reproduction developmental, duration: 131 days, F, Crl:CD(SD), generation: P0, P0: Whole Body: Body Weight Change + P0: Whole Body: Body Weight, Absolute + P0: Whole Body: Mortality
[25] = reproduction developmental, duration: 131 days, M/F, Crl:CD(SD), generation: F1, F1: Kidney: Kidney Abnormalities + F1: Whole Body: Clinical Observations + F1: Whole Body: Dams with Liveborn Pups + F1: Whole Body: …
[26] = reproduction developmental, duration: 131 days, M/F, Crl:CD(SD), generation: F1, F1: Whole Body: Pup Weight Relative to Litter
[27] = reproduction developmental, F, Sprague-Dawley, generation: P0, P0: Developmental: Uterus: Implantation + P0: Developmental: Whole Body: No. Male Pups per No. of Pups Sexed + P0: Endocrine: Pituitary: …
[28] = reproduction developmental, F, Sprague-Dawley, generation: P0, P0: Developmental: Uterus: Implantation + P0: Developmental: Whole Body: No. Male Pups per No. of Pups Sexed + P0: General Toxicity: Whole …

## OCCC(F)(F)C(F)(F)C(F)(F)C(F)(F)C(F)(F)C(F)(F)F [2-(Perfluorohexyl)ethanol]
[1]
  LOAEL: 225 mg/kg-day
  NOAEL: 75 mg/kg-day
[2]
  LEL: 250 mg/kg-day
  NEL: 125 mg/kg-day
developmental, duration: 14 days, M/F, Crl:CD(SD), generation: F1, F1: Skull: Frontal, Incomplete Ossification + F1: Skull: Zygomatic Arch, Incomplete Ossification + F1: Uterus: Fetuses, Dead + F1: Uterus: …
  NEL: 250 mg/kg-day
[3]
  LEL: 125 mg/kg-day
  NEL: 25 mg/kg-day
[4]
  LOAEL: 125 mg/kg-day
  NOAEL: 25 mg/kg-day
[5]
  LOAEL: 125 mg/kg-day
  NOAEL: 25 mg/kg-day
[6]
  LEL: 250 mg/kg-day
  NEL: 125 mg/kg-day
[7]
  LOAEL: 125 mg/kg-day
  NOAEL: 25 mg/kg-day
[8]
  LOAEL: 225 mg/kg-day
  NOAEL: 75 mg/kg-day
[9]
  LOAEL: 225 mg/kg-day
  NOAEL: 75 mg/kg-day
Reproduction developmental, duration: 14 days, F, Crl:CD(SD), generation: P0, P0: Ovary: Corpora Lutea + P0: Uterus: Implantation + P0: Uterus: Resorptions, Early + P0: Uterus: Resorptions, Late + P0: Uterus: …
  NEL: 250 mg/kg-day
Reproduction developmental, duration: 14 days, F, Crl:CD(SD), generation: P0, P0: Ovary: Corpora Lutea + P0: Uterus: Implantation + P0: Whole Body: Length of Gestation + P0: Whole Body: Necropsy Appeared Normal + P0: …
  NEL: 225 mg/kg-day
Reproduction developmental, duration: 14 days, F, Crl:CD(SD), generation: P0, P0: Reproductive: Ovary: Corpora Lutea + P0: Reproductive: Whole Body: Reproductive Performance
  NOAEL: 225 mg/kg-day
[10]
  LEL: 250 mg/kg-day
  NEL: 125 mg/kg-day
[11]
  LEL: 125 mg/kg-day
  NEL: 25 mg/kg-day
[12]
  LOAEL: 125 mg/kg-day
  NOAEL: 25 mg/kg-day
Reproduction developmental, duration: 14 days, F, Sprague-Dawley, generation: P0, P0: Macroscopic Observations + P0: Ovary: Corpora Lutea + P0: Uterus: Implantation + P0: Uterus: Resorptions, Early + P0: Uterus: …
  NEL: 250 mg/kg-day
Reproduction developmental, duration: 14 days, F, Sprague-Dawley, generation: P0, P0: Reproductive: Ovary: Corpora Lutea + P0: Reproductive: Uterus: Uterine Weight, Gravid
  NOAEL: 250 mg/kg-day
[13]
  LEL: 250 mg/kg-day
  NEL: 125 mg/kg-day
Reproduction developmental, duration: 14 days, M/F, Crl:CD(SD), generation: F1, F1: Whole Body: Nursing Behavior + F1: Whole Body: Skeletal Malformation
  NEL: 225 mg/kg-day
[14]
  LEL: 225 mg/kg-day
  NEL: 75 mg/kg-day
Reproduction developmental, duration: 34 days, M, Crl:CD(SD), generation: P0, P0: Central Nervous System: Latency to mount + P0: Whole Body: Necropsy Appeared Normal
  NEL: 225 mg/kg-day
Reproduction developmental, duration: 70 days, F, Crl:CD(SD), generation: P0, P0: Lung: Lung Histopathology + P0: Mammary Gland: Mammary Gland Histopathology + P0: Ovaries: Ovary Histopathology + P0: Ovary: Ovary …
  NEL: 250 mg/kg-day
[15]
  LEL: 125 mg/kg-day
  NEL: 25 mg/kg-day
[16]
  LEL: 250 mg/kg-day
  NEL: 125 mg/kg-day
[17]
  LEL: 250 mg/kg-day
  NEL: 125 mg/kg-day
Reproduction developmental, duration: 70 days, M/F, Crl:CD(SD), generation: F1, F1: Whole Body: Live Pups Born + F1: Whole Body: Mean Pups Delivered + F1: Whole Body: Pup Mortality
  NEL: 250 mg/kg-day
[18]
  LEL: 125 mg/kg-day
  NEL: 25 mg/kg-day
Reproduction developmental, duration: 70 days, M, Crl:CD(SD), generation: P0, P0: Epididymides: Epididymides Histopathology + P0: Epididymis: Epididymis Weight, Left, Absolute + P0: Epididymis: Epididymis Weight, Left…
  NEL: 250 mg/kg-day
[19]
  LEL: 125 mg/kg-day
  NEL: 25 mg/kg-day
[20]
  LEL: 250 mg/kg-day
  NEL: 125 mg/kg-day
Reproduction developmental, duration: 84 days, M, Crl:CD(SD), generation: P0, P0: Epididymis: Epididymis Histopathology + P0: Epididymis: Epididymis Weight, Absolute + P0: Epididymis: Epididymis Weight, Relative + P0: …
  NEL: 250 mg/kg-day
[21]
  LEL: 125 mg/kg-day
  NEL: 25 mg/kg-day
[22]
  LEL: 250 mg/kg-day
  NEL: 125 mg/kg-day
Reproduction developmental, duration: 131 days, F, Crl:CD(SD), generation: P0, P0: Bladder: Urinary Bladder Histopathology + P0: Kidney: Kidney Histopathology + P0: Lung: Lung Histopathology + P0: Ovary: Ovary …
  NEL: 250 mg/kg-day
[23]
  LEL: 125 mg/kg-day
  NEL: 25 mg/kg-day
[24]
  LEL: 250 mg/kg-day
  NEL: 125 mg/kg-day
[25]
  LEL: 250 mg/kg-day
  NEL: 125 mg/kg-day
Reproduction developmental, duration: 131 days, M/F, Crl:CD(SD), generation: F1, F1: Whole Body: Dams with Stillborn Pups + F1: Whole Body: Live Pups Born + F1: Whole Body: Surviving Pups Per Litter
  NEL: 250 mg/kg-day
[26]
  LEL: 125 mg/kg-day
  NEL: 25 mg/kg-day
[27]
  LOAEL: 125 mg/kg-day
  NOAEL: 25 mg/kg-day
[28]
  LOAEL: 125 mg/kg-day
  NOAEL: 25 mg/kg-day
Reproduction developmental, F, Sprague-Dawley, generation: P0, P0: Endocrine: Pituitary: Pituitary Gland Histopathology + P0: Endocrine: Pituitary: Pituitary Gland Weight, Absolute + P0: Endocrine: …
  NOAEL: 250 mg/kg-day
Reproduction developmental, M/F, Crl:CD(SD), generation: P0, P0: Reproductive: Whole Body: Gestation Index
  LOAEL: 125 mg/kg-day
